Measured values: US11793845B2, “Composition for ameliorating peripheral sensory neuropathy” (KINKI UNIVERSITY, priority 2016, dated 2023)
One block for each molecule: values may come before it.

Legend:
Type in all cases: in vivo
[1] = system: Peripheral Sensory Neuropathy Induced by Bortezomib in Mice; assay: von Frey test, bortezomib-induced peripheral sensory neuropathy; details: bortezomib 1 mg/kg once a week alone, compared with control group; three days after the administration
Source text: (§1) The mice in the three groups in the above (1) were put in a cage and a filament having a strength of 0.16 g was pressed on the plantar surface of the leg to measure the number of times (a score) of avoidance response.
(§2) In the present test, the mice were divided into three groups by a difference in test objects. As in Example 1, male Balb/c mice of 6 to 7 weeks old were used. The mice were divided into a total of three groups, a control group, a bortezomib administration group, and a bortezomib and Lentinus edodes mycelium extract administration group (bortezomib+Lentinus edodes mycelium extract administration group).
(§3) Bortezomib was administered to each mouse once a day at a dose of 1 mg/kg. Further, the Lentinus edodes mycelium extract was administered to each mouse once a day at a dose of 2 g/kg.
Further, the number of times of administration was set to once a week (on Day 0, Day 7, and Day 14) for bortezomib and daily (from Day 0 to Day 15) for the Lentinus edodes mycelium extract in both the von Frey test and the cold plate test below.
Evaluation was performed in the same manner as in the test with oxaliplatin in Example 1. Referring to FIG. 7, the horizontal axis indicates an elapsed time after administration (days) and the vertical axis indicates the avoidance response (scores). Open circles with a solid line represent the control group. Filled circles with a solid line represent the group in which only bortezomib was administered. Open squares with a dash line represent the group in which bortezomib and the Lentinus edodes mycelium extract were administered at the same time (bortezomib+Lentinus edodes mycelium extract administration group). When the difference with the control group was determined to be significant using a significance level of 5%, the data were marked by “*”.
(§4) In the present test, the mice were divided into six groups by a difference in test objects. As in Example 1, male Balb/c mice of 6 to 7 weeks old were used. […]

[2] = system: Peripheral Sensory Neuropathy Induced by Bortezomib in Mice; assay: cold plate test, bortezomib-induced peripheral sensory neuropathy; details: bortezomib 1 mg/kg once a day alone; Day 3
Experimental: (§5) The effect of the Lentinus edodes mycelium extract on the paresthesia to cold stimulation was tested by performing the cold plate test. The mice in the three groups in the above (1) were put on a cold plate set to 10° C. and a response time for avoidance (a latency) was measured. The shorter latency means that the mouse avoids the cold stimulation of the cold plate more.
as §2, §3
Evaluation was performed in the same manner as in the test with oxaliplatin in Example 1. Referring to FIG. 8, the horizontal axis indicates the elapsed time after administration (days) and the vertical axis indicates the avoidance response time (seconds). Open circles with a solid line represent the control group. Filled circles with a solid line represent the group in which only bortezomib was administered. Open squares with a dash line represent the group in which bortezomib and the Lentinus edodes mycelium extract were administered at the same time (bortezomib+Lentinus edodes mycelium extract administration groups). When the difference with the control group was determined to be significant using a significance level of 5%, the data were marked by “*”.
as §4

[3] = system: Peripheral Sensory Neuropathy Induced by Vincristine in Mice; assay: von Frey test, vincristine-induced peripheral sensory neuropathy; details: vincristine 0.2 mg/kg once a week alone, compared with control group; three days after the administration
Source text: as §1
as §2, with “vincristine” for “bortezomib”, “(vincristine+Lentinus” for “(bortezomib+Lentinus”
(§6) Vincristine was administered to each mouse once a day at a dose of 0.2 mg/kg. Further, the Lentinus edodes mycelium extract was administered to each mouse once a day at a dose of 2 g/kg.
Further, the number of times of administration was set to once a week (on Day 0, Day 7, and Day 14) for vincristine and daily (from Day 0 to Day 15) for the Lentinus edodes mycelium extract in both the von Frey test and the cold plate test below.
Evaluation was performed in the same manner as in the test with oxaliplatin in Example 1. Referring to FIG. 5, the horizontal axis indicates an elapsed time after administration (days) and the vertical axis indicates the avoidance response (scores). Open circles with a solid line represent the control group. Filled circles with a solid line represent the group in which only vincristine was administered. Open squares with a dash line represent the group in which vincristine and the Lentinus edodes mycelium extract were administered at the same time (vincristine+Lentinus edodes mycelium extract administration group). When the difference with the control group was determined to be significant using a significance level of 5%, the data were marked by “*”.
as §4

[4] = system: Peripheral Sensory Neuropathy Induced by Vincristine in Mice; assay: cold plate test, vincristine-induced peripheral sensory neuropathy; details: vincristine 0.2 mg/kg once a day alone; Day 3
Experimental: as §5
In the present test, the mice were divided into three groups by a difference in test objects. As in Example 1, male Balb/c mice of 6 to 7 weeks old were used. The mice were divided into a total of three groups, a control group, a vincristine
administration group, and a vincristine and Lentinus edodes mycelium extract administration group (vincristine+Lentinus edodes mycelium extract administration group).
as §6
Evaluation was performed in the same manner as in the test with oxaliplatin in Example 1. Referring to FIG. 6, the horizontal axis indicates the elapsed time after administration (days) and the vertical axis indicates the avoidance response time (seconds). Open circles with a solid line represent the control group. Filled circles with a solid line represent the group in which only vincristine was administered. Open squares with a dash line represent the group in which vincristine and the Lentinus edodes mycelium extract were administered at the same time (vincristine+Lentinus edodes mycelium extract administration group). When the difference with the control group was determined to be significant using a significance level of 5%, the data were marked by “*”.
as §4

[5] = system: Peripheral Sensory Neuropathy Induced by Oxaliplatin in Mice; assay: von Frey test, oxaliplatin-induced peripheral sensory neuropathy; details: oxaliplatin 6 mg/kg once a week alone, compared with control group; 0.16 g filament
Experimental: (§7) Male Balb/c mice of 6 to 7 weeks old were used. The mice were divided into three groups: a control group, an oxaliplatin administration group, and an oxaliplatin and Lentinus edodes mycelium extract administration group (oxaliplatin+Lentinus edodes mycelium extract administration group). Oxaliplatin was administered to each mouse once a day at a dose of 6 mg/kg. Further, the Lentinus edodes mycelium extract was administered to each mouse once a day at a dose of 2 g/kg.
(§8) Further, the number of times of administration was set to once a week (on Day 0, Day 7, and Day 14) for oxaliplatin and daily (from Day 0 to Day 15) for the Lentinus edodes mycelium extract in both the von Frey test and the cold plate test below.
The higher number of times of avoidance means that the mouse avoids the stimulation by the filament more. […] When the difference with the control group was determined to be significant using a significance level of 5%, the data were marked by “*”.

[6] = system: Peripheral Sensory Neuropathy Induced by Oxaliplatin in Mice; assay: cold plate test, oxaliplatin-induced peripheral sensory neuropathy; details: oxaliplatin 6 mg/kg once a week alone; Day 3; cold plate 10° C.
Experimental: as §7, §8
Oxaliplatin was administered to each mouse once a day at a dose of 6 mg/kg. Further, the Lentinus edodes mycelium extract was administered to each mouse once a day at a dose of 2 g/kg three days or six days after the administration of oxaliplatin. These groups are referred to as “Lentinus edodes mycelium extract 3-day delayed administration group” and “Lentinus edodes mycelium extract 6-day delayed administration group”, respectively.
Further, groups in which duloxetine was administered after the administration of oxaliplatin were prepared for comparison.

avoidance response (scores), von Frey test [1]: significantly increased
latency to the cold stimulation (avoidance response time), cold plate test [2]: significantly reduced
Compound: CC(C)C[C@H](NC(=O)[C@H](Cc1ccccc1)NC(=O)c1cnccn1)B(O)O [bortezomib]

avoidance response (scores), von Frey test [3]: significantly increased
latency to the cold stimulation (avoidance response time), cold plate test [4]: significantly reduced
Compound: CC[C@]1(O)C[C@H]2CN(CCc3c([nH]c4ccccc34)[C@@](C(=O)OC)(c3cc4c(cc3OC)N(C=O)[C@H]3[C@@](O)(C(=O)OC)[C@H](OC(C)=O)[C@]5(CC)C=CCN6CC[C@]43[C@@H]65)C2)C1 [vincristine]

Compound: O=C1[O][Pt]2([NH][C@@H]3CCCC[C@H]3[NH]2)[O]C1=O [oxaliplatin]
avoidance response (scores), von Frey test [5]: significantly increased
latency to the cold stimulation (avoidance response time), cold plate test [6]: significantly reduced
